{"source": "paper PMC7681098", "about": "(Theranostics, 2021)", "key": {"[1]": {"target": "T1, c-Kit (Homo sapiens, UniProt P10721)", "T1 construct": "purchased Reaction Biology Corporation (PA, USA)", "T1 sequence (P10721 26-976)": "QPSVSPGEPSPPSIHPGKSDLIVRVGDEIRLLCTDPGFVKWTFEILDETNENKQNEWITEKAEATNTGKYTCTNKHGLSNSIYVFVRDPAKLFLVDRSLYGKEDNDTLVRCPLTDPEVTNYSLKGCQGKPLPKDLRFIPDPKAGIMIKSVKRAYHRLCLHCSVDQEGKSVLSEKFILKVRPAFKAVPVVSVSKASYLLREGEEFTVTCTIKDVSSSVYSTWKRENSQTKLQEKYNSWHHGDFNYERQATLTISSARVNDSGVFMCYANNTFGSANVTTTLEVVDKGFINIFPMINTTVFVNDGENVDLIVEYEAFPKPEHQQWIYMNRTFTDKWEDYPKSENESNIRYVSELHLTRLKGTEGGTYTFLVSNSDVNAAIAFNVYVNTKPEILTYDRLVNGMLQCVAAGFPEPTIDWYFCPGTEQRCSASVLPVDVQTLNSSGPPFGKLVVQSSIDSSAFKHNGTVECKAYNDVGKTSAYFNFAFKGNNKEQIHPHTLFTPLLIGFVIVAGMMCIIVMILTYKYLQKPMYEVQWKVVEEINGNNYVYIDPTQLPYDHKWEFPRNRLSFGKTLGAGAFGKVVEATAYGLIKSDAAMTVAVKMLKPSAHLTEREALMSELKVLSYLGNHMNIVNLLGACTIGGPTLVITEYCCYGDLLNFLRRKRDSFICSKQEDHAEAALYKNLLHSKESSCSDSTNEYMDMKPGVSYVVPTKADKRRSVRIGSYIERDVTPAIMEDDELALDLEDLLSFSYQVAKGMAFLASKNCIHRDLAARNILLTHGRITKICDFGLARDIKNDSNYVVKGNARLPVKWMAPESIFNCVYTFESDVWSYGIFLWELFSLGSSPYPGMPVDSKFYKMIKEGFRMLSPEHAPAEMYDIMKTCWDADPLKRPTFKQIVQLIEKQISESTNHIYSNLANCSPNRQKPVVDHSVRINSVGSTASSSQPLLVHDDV", "test": "Kinase inhibition assay (Reaction Biology)", "format": "biochemical"}, "[2]": {"target": "T2, FLT3 (Homo sapiens, UniProt P36888)", "T2 construct": "purchased Reaction Biology Corporation (PA, USA)", "test": "Kinase inhibition assay (Reaction Biology)", "format": "biochemical", "T2 sequence (P36888 27-993)": "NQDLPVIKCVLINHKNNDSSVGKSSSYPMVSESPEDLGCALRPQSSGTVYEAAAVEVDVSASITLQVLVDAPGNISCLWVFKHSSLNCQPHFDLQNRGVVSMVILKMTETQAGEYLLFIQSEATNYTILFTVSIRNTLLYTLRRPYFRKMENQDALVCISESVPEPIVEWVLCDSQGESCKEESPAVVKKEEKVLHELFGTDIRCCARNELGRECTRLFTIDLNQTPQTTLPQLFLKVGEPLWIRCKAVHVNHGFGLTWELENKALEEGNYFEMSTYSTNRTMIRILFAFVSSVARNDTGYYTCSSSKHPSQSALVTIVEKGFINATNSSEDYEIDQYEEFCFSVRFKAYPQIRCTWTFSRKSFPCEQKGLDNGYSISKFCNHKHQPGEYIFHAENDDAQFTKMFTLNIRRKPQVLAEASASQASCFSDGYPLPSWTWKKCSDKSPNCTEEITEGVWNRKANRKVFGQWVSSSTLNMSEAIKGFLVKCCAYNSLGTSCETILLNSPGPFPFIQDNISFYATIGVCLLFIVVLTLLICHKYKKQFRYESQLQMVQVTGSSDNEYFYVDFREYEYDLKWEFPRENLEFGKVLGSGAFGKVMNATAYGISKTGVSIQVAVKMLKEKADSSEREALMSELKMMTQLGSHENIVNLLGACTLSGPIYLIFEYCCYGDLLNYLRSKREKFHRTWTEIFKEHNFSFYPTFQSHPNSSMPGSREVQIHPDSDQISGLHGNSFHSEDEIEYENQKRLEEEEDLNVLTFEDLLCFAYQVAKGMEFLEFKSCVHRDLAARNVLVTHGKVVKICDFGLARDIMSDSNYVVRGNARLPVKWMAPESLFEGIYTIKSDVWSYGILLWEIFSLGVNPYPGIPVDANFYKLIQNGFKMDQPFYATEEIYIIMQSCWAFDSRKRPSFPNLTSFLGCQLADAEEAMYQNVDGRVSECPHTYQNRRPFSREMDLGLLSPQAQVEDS"}, "[3]": {"tested_on": "BaF3 cells with FLT3-ITD/F691L", "test": "Cell viability of transformed BaF3 cells", "format": "cell-based, murine", "conditions": "Mus musculus, read-out: BaF3 cells with FLT3 mutants IC50 ITD-F691L", "method": "(§1) Lentivirus packaging and construction of transformed BaF3 cells were performed as described previously. […] Supernatants were collected and used to infect BaF3 cells, and transduced BaF3 cells were selected with puromycin (1 μg/ml) to obtain stably transformed cells.\n(§2) The conditional medium (CM) was prepared from the supernatant of HS-5 cell culture for 5 days under normal culture conditions. At the indicated time point, cell viability was evaluated by MTT assay."}, "[4]": {"tested_on": "BaF3 cells with FLT3-ITD/Y842C", "test": "Cell viability of transformed BaF3 cells", "format": "cell-based, murine", "conditions": "Mus musculus, read-out: BaF3 cells with FLT3 mutants IC50 ITD-Y842C", "method": "as §1, §2"}, "[5]": {"tested_on": "BaF3 cells with FLT3-ITD/N676D", "test": "Cell viability of transformed BaF3 cells", "format": "cell-based, murine", "conditions": "Mus musculus, read-out: BaF3 cells with FLT3 mutants IC50 ITD-N676D", "method": "as §1, §2"}, "[6]": {"tested_on": "BaF3 cells with FLT3-D835Y", "test": "Cell viability of transformed BaF3 cells", "format": "cell-based, murine", "conditions": "Mus musculus, read-out: BaF3 cells with FLT3 mutants IC50 D835Y", "method": "as §1, §2"}, "[7]": {"tested_on": "BaF3 cells with FLT3-ITD", "test": "Cell viability of transformed BaF3 cells", "format": "cell-based, murine", "conditions": "Mus musculus, read-out: BaF3 cells with FLT3 mutants IC50 ITD", "method": "as §1, §2"}, "[8]": {"tested_on": "BaF3 cells with FLT3-ITD/D835Y", "test": "Cell viability of transformed BaF3 cells", "format": "cell-based, murine", "method": "as §1, §2"}, "[9]": {"target": "T3, FLT1/VEGFR1 (Homo sapiens, UniProt P17948)", "T3 construct": "purchased Reaction Biology Corporation (PA, USA)", "T3 sequence (P17948 27-1338)": "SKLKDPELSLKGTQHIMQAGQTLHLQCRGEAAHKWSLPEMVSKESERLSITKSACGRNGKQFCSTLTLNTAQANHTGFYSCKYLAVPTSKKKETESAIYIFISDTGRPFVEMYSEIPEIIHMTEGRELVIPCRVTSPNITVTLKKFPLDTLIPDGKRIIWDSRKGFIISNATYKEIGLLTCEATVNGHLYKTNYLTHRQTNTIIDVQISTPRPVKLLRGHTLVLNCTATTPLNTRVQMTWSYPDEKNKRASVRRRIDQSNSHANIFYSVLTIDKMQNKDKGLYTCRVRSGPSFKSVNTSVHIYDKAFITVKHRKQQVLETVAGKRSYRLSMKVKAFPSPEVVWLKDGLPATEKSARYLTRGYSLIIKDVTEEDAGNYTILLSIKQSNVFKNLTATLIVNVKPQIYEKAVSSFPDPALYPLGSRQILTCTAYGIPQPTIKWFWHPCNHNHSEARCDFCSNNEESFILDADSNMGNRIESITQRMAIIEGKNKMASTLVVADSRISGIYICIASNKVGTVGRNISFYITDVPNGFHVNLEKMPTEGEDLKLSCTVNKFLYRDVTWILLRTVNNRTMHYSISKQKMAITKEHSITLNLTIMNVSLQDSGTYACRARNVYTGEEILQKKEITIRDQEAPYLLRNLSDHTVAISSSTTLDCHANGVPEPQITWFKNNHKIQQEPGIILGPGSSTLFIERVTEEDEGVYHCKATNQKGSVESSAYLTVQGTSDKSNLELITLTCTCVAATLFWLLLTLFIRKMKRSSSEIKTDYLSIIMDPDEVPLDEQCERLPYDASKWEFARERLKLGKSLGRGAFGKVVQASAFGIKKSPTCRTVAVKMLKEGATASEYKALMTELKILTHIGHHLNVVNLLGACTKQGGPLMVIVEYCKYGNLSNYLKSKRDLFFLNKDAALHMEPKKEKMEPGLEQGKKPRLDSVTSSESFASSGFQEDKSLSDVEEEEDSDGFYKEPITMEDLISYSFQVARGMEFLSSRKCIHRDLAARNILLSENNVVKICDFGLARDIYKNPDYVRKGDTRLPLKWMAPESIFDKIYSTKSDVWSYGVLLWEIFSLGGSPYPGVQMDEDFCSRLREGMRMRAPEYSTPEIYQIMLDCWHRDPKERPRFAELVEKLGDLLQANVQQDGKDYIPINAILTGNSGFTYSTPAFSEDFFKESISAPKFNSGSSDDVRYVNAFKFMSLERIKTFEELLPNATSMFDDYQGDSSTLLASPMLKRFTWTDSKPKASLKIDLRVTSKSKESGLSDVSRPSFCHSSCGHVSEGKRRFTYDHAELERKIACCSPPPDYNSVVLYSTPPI", "test": "Kinase inhibition assay (Reaction Biology)", "format": "biochemical"}, "[10]": {"target": "T4, FGFR1 (Homo sapiens, UniProt P11362)", "T4 construct": "purchased Reaction Biology Corporation (PA, USA)", "T4 sequence (P11362 22-822)": "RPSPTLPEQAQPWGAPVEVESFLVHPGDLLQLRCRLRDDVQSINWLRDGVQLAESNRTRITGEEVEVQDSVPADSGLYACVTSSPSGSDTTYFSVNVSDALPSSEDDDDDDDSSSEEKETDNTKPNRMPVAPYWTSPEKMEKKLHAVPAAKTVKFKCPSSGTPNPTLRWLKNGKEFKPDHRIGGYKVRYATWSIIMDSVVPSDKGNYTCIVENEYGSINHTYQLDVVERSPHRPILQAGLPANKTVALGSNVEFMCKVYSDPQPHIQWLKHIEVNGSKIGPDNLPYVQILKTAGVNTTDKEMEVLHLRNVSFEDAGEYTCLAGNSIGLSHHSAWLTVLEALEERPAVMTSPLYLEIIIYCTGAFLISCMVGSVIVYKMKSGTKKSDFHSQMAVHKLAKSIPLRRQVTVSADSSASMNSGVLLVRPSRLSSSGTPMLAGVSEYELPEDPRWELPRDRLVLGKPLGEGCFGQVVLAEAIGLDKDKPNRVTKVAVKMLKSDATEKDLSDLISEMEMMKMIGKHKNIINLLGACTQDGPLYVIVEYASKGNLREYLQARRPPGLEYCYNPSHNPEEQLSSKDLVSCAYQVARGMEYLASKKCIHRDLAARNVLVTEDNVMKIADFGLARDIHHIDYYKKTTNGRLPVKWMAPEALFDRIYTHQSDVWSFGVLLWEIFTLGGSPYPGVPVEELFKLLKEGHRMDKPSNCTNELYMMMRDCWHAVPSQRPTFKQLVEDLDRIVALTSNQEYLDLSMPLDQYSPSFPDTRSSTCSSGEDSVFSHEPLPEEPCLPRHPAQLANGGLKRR", "test": "Kinase inhibition assay (Reaction Biology)", "format": "biochemical"}, "[11]": {"target": "T5, JAK1 (Homo sapiens, UniProt P23458)", "T5 construct": "purchased Reaction Biology Corporation (PA, USA)", "test": "Kinase inhibition assay (Reaction Biology)", "format": "biochemical"}, "[12]": {"tested_on": "FLT3", "test": "PD study in subcutaneous MV4-11 xenograft mice", "format": "in vivo, BALB/c nude mice", "conditions": "single dose 10 mg/kg intravenous", "method": "An MV4-11 cell tumor model was established by subcutaneous injection. Six-week-old female BALB/c nude mice were used for the subcutaneous model. […] Mice were sacrificed and tumor tissues were freshly dissected, homogenized, and centrifuged at 16000 g for 20 min. The phosphorylation levels of FLT3 were measured by Western blot.\nBlue square and solid line represent intravenous injection administration. […] Mice were sacrificed at indicated time points and then tumor tissues were dissected and lysed. Phosphorylation levels of FLT3, STAT5 and ERK1/2 were measured by western blotting. (C) Bone marrow mononuclear cells (BMMCs) were isolated from healthy C57BL/6 mice. […] Apoptosis assays were conducted after 36-hour incubation. […] 24 h after the last administration, c-Kit^+ cells were evaluated by flow cytometry. […] Data were shown with mean±SD."}, "[13]": {"tested_on": "MV4-11 cells", "test": "Bone marrow engrafted model, survival", "format": "in vivo, NOD-SCID mice", "conditions": "MV4-11 bone marrow engraftment; LT-171-861 10 mg/kg every other day, sorafenib orally every day", "method": "Six-week-old female NOD-SCID mice were treated with sub-lethal dose radiation (1.8 Gy) before intravenous injection of MV4-11 cells (5×10^6) or MOLM13 cells (5×10^6).\nData were shown as mean±SD. […] Data were shown as mean±SD. (C) An engrafted tumor model was used to evaluate in vivo antitumor activity. The NOD/SCID mice were intravenously inoculated with MV4-11 cells. […] Log-rank testing was used to compare survival curves among treatment groups. […] (D) Apoptotic assays in engraft model were evaluated by TUNEL assay and cell proliferative activity was measured by Ki67 assay. Images were acquired at ×40 magnification. (E) BALB/c nude mice were subcutaneously inoculated with MV4-11 cells (5×10^6) and bodyweight of each mouse was recorded every other day. (F) Representative photo of tumors from BALB/c nude mice which were inoculated with MV4-11 cells. (G) BALB/c nude mice were subcutaneously inoculated with BaF3 cells bearing FLT3-ITD-N676D (n=6) and FLT3-ITD-F691L (n=6) respectively. […] (H) BALB/c mice were intravenously inoculated with cells used in (G). […] Log-rank testing was used to compare survival curves among treatment groups. […] (I) Representative photos of spleens dissected from mice in (H) inoculated with BaF3 cells bearing FLT-3-ITD-F691L.\nMice that received vehicle treatment died within 30 days after intravenous injection of MV4-11 cells."}, "[14]": {"target": "FLT3 (Homo sapiens, UniProt P36888)", "test": "FLT3 autophosphorylation by western blot in MV4-11 and MOLM13 cells", "format": "cell-based", "conditions": "2 h, read-out: IC50 of inhibition of FLT3 autophosphorylation", "method": "Western blot analysis was performed as previously described. AML cell lines, BaF3 transformed cell lines and human primary cells were treated with the indicated concentration of FLT3 inhibitors for 2 h. To examine the phosphorylation levels of FLT3-Y591 (Cat. #3464s), p44/42-Thr202/Tyr204 (Cat. #4370), whole-cell lysates were subjected to immunoblotting with the corresponding primary antibodies from Cell Signaling Technology (MA, USA). Anti-STAT5 (Cat. #a7733), anti-STAT5-Y694 (Cat. #ap0070), anti-ERK1/2 (Cat. #a1013), anti-AKT (Cat. #a7270), anti-AKT-Ser473 (Cat. #ap0098), anti-Caspase 3 (Cat. #a11021), anti-PARP1 (Cat. #a0010), anti-Bcl2 (Cat. #a19693), anti-Mcl-1 (Cat. #a0434), anti-Pim2 (Cat. #a9230), anti-Caspase8 (Cat. #a19549) and anti-FLT3 (Cat. #a12437) were purchased from ABclonal Company (Wuhan, China).\n(A) Chemical structure of LT-171-861. […] Data were then fitted to obtain KD value. […] Data were first normalized by setting the highest and lowest value in each set to 100% and 0% respectively. Data were obtained in the presence of the LT-171-861 (blue circle) as positive the control and DMSO (red square) as the negative control. All experiments were performed at three independent occasions and data are given as the mean ± SD. […] Cell viability was evaluated by MTT assay respectively. The IC50 values were calculated using nonlinear regression."}}, "note": "Read-outs that look alike come from different tables or passages of the source.", "data": [{"smiles": "CN1CCN(Cc2ccc(NC(=O)c3n[nH]cc3Nc3ncnc4[nH]ccc34)cc2)CC1", "note": "[LT-171-861]", "values": [{"measurement": "IC50", "setting": "[1]", "result": "> 200", "unit": "nM"}, {"measurement": "IC50", "setting": "[1]; 10 μM ATP, 10-dose IC50 mode", "result": 1810, "unit": "nM"}, {"measurement": "IC50", "setting": "[2]", "result": "< 1", "unit": "nM"}, {"measurement": "IC50", "setting": "[2]; 10 μM ATP, 10-dose IC50 mode", "result": 0.234, "unit": "nM"}, {"measurement": "IC50", "setting": "[3]", "result": 7.65, "unit": "nM"}, {"measurement": "IC50", "setting": "[4]", "result": 18.8, "unit": "nM"}, {"measurement": "IC50", "setting": "[5]", "result": 47.5, "unit": "nM"}, {"measurement": "IC50", "setting": "[6]", "result": 23.3, "unit": "nM"}, {"measurement": "IC50", "setting": "[7]", "result": 4.1, "unit": "nM"}, {"measurement": "IC50 lower than that of sorafenib in cells bearing ITD-D835Y mutations", "setting": "[8]; BaF3 FLT3-ITD-D835Y", "result": "~16", "unit": "fold"}, {"measurement": "IC50", "setting": "[8]; Mus musculus, BaF3, cell viability, read-out: BaF3 cells with FLT3 mutants IC50 ITD-D835Y", "result": 57.2, "unit": "nM"}, {"measurement": "IC50", "setting": "[9]", "result": 5.6, "unit": "nM"}, {"measurement": "IC50", "setting": "[10]", "result": 20, "unit": "nM"}, {"measurement": "IC50", "setting": "[11]", "result": 55, "unit": "nM"}, {"measurement": "duration of inhibition of FLT3 autophosphorylation and downstream effectors", "setting": "[12]", "result": 24, "unit": "h"}, {"measurement": "inhibition of p-FLT3, p-STAT5 and p-ERK1/2 in tumor", "setting": "[12]; western blot", "result": "sustained inhibition"}, {"measurement": "survival versus vehicle", "setting": "[13]", "result": "increased survival rates"}, {"measurement": "IC50", "setting": "[14]", "result": "≤ 40", "unit": "nM"}]}]}
